Experimental data reported in patent US20240189311A1, “Combination Therapy of Obicetrapib and Ezetimibe for Use in Statin Intolerant Patients Suffering from Hyperlipidemia or Mixed Dyslipidaemia” (NEWAMSTERDAM PHARMA B.V., priority 2021, published 2024).

How the values were obtained:
[1] = tested on: low-density lipoprotein cholesterol (LDL-C); assay: Phase 2 study of obicetrapib and ezetimibe in mild dyslipidaemia: LDL-C by Friedewald formula; format: in vivo, human
Source text: (§1) Study drugs will be administered by the participant orally and once daily on Days 1 through 57. Study drugs should be administered at approximately the same time each morning, with food. On days with visits scheduled, study drugs should be administered with food following all fasted blood samples. If a participant forgets to take study drug on a given day, they should take the next dose as normal and should not take a double dose to make up for the forgotten dose.
(§2) Up to 2 weeks after the Screening Visit, participants will return to the site on Day 1 (Visit 2) to be randomized and begin treatment. Approximately 100 eligible participants (25 participants per treatment group) will be randomized in a 1:1:1:1 ratio to 1 of the following treatment groups: • Combination therapy: 5 mg obicetrapib+10 mg ezetimibe; • Obicetrapib monotherapy: 5 mg obicetrapib+placebo ezetimibe; • Ezetimibe monotherapy: placebo obicetrapib+10 mg ezetimibe; or • Placebo: placebo obicetrapib+placebo ezetimibe.
LDL-C level was collected using the following 2 approaches: • 1. At each scheduled visit, LDL-C level was calculated using the Friedewald formula; and • 2. In addition, at baseline (Day 1) and at the end of the 8-week Treatment Period (Day 57), LDL-C was measured for all participants by preparative ultracentrifugation (PUC). Primary Efficacy Endpoint Primary analysis
The primary efficacy analysis of the percent change from Day 1 to Day 57 in LDL-C was performed using a mixed model for repeated measures (MMRM) approach. The analysis included fixed effects for treatment, visit, and treatment-by-visit interaction, along with a covariate of the baseline value as a continuous covariate. Randomization was stratified by categories of LDL-C value (<3.5 mmol/L [<135 mg/dL] or >3.5 mmol/L [≥135 mg/dL]) only to ensure similar distribution of LDL-C across all treatment groups; however, the MMRM model included the original scale of the LDL-C value as a continuous covariate. The Restricted Maximum Likelihood estimation approach was used with an unstructured covariance matrix. The least squares (LS) means, standard errors, and 2-sided 95% confidence intervals (CIs) for each treatment group, for the pairwise comparisons of the combination therapy, obicetrapib monotherapy, and ezetimibe monotherapy to placebo, and for the pairwise comparisons of combination therapy and obicetrapib monotherapy versus ezetimibe monotherapy are provided. The treatment comparison was performed using a 2-sided test at the α=0.05 level of significance.
(§3) Similar MMRM models were used for the exploratory efficacy endpoints. The proportion of participants at Day 57 that achieved LDL-C<2.6 mmol/L (<100 mg/dL), LDL-C<1.8 mmol/L (<70 mg/dL), and LDL-C<1.3 mmol/L (<50 mg/dL) were examined through Logistic Regression Models for binary variables with covariates of the treatment groups and the baseline variable.
This study was a placebo-controlled, double-blind, randomized Phase 2 study in participants with mild dyslipidemia to evaluate the efficacy, safety, and tolerability of obicetrapib and ezetimibe combination therapy. The primary efficacy endpoint was percent change from Day 1 to Day 57 in LDL-C for the obicetrapib 5 mg+ezetimibe 10 mg group compared to the placebo group.

apolipoprotein B (ApoB) = assay: Phase 2 study of obicetrapib and ezetimibe in mild dyslipidaemia: ApoB; format: in vivo, human
Source text: as §1, §2
Similar MMRM models were developed to examine the percent change from Day 1 to Day 57 in LDL-C (for other pairwise treatment group comparisons beside the analysis specified for the primary efficacy endpoint, using the Friedewald formula) or ApoB. In order to maintain the overall Type 1 error rate, the secondary efficacy endpoints were tested sequentially at the 0.05 significance level according to the pre-specified order of hierarchy. This applied to the following analyses: • Percent change from Day 1 to Day 57 in LDL-C for the obicetrapib monotherapy group compared to the placebo group; • Percent change from Day 1 to Day 57 in ApoB for the combination therapy group compared to the placebo group; • Percent change from Day 1 to Day 57 in ApoB for the obicetrapib monotherapy group compared to the placebo group; • Percent change from Day 1 to Day 57 in LDL-C for combination therapy group compared to the ezetimibe monotherapy group; • Percent change from Day 1 to Day 57 in LDL-C for the obicetrapib monotherapy group compared to the ezetimibe monotherapy group; • Percent change from Day 1 to Day 57 in LDL-C, for the ezetimibe monotherapy group compared to the placebo group; and • Percent change from Day 1 to Day 57 in ApoB for the combination therapy group compared to the ezetimibe monotherapy group.

[2] = tested on: non-high-density lipoprotein cholesterol (non-HDL-C); assay: Phase 2 study: non-HDL-C; format: in vivo, human; conditions: Day 57
Protocol: as §2, §3

[3] = tested on: high-density lipoprotein cholesterol (HDL-C); assay: Phase 2 study: HDL-C; format: in vivo, human; conditions: Day 57
Protocol: as §2, §3

apolipoprotein E (ApoE) = assay: Phase 2 study: ApoE; format: in vivo, human; conditions: Day 57
Protocol: as §2, §3

[4] = Phase 2 study: safety and tolerability (adverse events); format: in vivo, human
Source text: The Safety Population included all participants who received at least 1 dose of any study drug. Treatment classification was based on the actual treatment received. The Safety Population was the primary population used for the safety analyses.
The Safety Population was the primary population for the safety analyses. All safety endpoints are summarized descriptively. No statistical inference was applied to the safety endpoints.
AEs were categorized by primary system organ class (SOC) and preferred term (PT) as coded using the Medical Dictionary for Regulatory Activities (version 23.0) category designations. Summaries of AEs, including the count and percentage of participants who experienced an AE, are provided.
An overview of treatment-emergent adverse events (TEAEs) is provided, including counts and percentages of participants (and event counts).
Listings are presented specifically for TEAEs, treatment-emergent serious adverse events (TESAEs), and TEAEs leading to discontinuation of study drug.

[5] = Phase 2 study: pharmacokinetics of obicetrapib; format: in vivo, human; conditions: by 8 weeks after long-term daily dosing
Source text: Plasma obicetrapib concentrations will be summarized with descriptive statistics based on the PK Population. Exploration of any relationships with obicetrapib exposure will be performed, as appropriate.
The PK Population included all participants in the mITT Population who had sufficient blood samples collected for valid estimation of PK parameters.

LDL-C = conditions: cited from earlier work
HDL-C = conditions: cited from earlier work
CETP = biological target: T1, CETP (Homo sapiens, UniProt P11597); conditions: 5 mg obicetrapib dose; healthy subjects and patients; multiple dose; cited from earlier work
T1 construct: from tissue; host or cells: plasma of the dosed clinical-study subjects (endogenous CETP)
T1 sequence (P11597 18-493): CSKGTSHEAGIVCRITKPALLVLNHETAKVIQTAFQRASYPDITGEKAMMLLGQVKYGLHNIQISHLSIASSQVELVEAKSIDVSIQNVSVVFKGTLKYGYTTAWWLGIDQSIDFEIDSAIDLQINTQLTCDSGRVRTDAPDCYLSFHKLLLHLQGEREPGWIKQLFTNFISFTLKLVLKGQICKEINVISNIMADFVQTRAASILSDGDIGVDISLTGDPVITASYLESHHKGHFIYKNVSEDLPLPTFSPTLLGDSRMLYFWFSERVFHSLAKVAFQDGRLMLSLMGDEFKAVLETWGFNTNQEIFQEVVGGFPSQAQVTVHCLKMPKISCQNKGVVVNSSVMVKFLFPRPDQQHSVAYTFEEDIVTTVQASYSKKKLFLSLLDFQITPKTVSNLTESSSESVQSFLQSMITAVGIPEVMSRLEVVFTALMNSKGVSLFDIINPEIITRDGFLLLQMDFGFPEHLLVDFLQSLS

[6] = mITT population, mild dyslipidaemia, oral once daily, Day 57
[7] = mITT population, oral once daily, baseline to Day 57
[8] = previous multiple-dose clinical studies, 5 mg obicetrapib dose, healthy subjects and patients

CCOC(=O)N1c2ccc(C(F)(F)F)cc2[C@@H](N(Cc2cc(C(F)(F)F)cc(C(F)(F)F)c2)c2ncc(OCCCC(=O)O)cn2)C[C@H]1C [Obicetrapib 5 mg]
Number of participants that achieved LDL-C<70 mg/dL by Friedewald formula ([1]; Day 57): 7 participants
Number of participants that achieved LDL-C<100 mg/dL by Friedewald formula ([1]; Day 57): 16 participants
Percentage of participants that achieved LDL-C<70 mg/dL by Friedewald formula ([1]; Day 57): 25.0%
Percentage of participants that achieved LDL-C<100 mg/dL by Friedewald formula ([1]; Day 57): 57.1%
LDL-C by Friedewald formula at Day 57, mean [1, 6]: 87.0 mg/dL
LDL-C by Friedewald formula at Day 57, median [1, 6]: 87.0 mg/dL
Change from baseline to Day 57 in LDL-C by Friedewald formula, mean [1, 7]: -39.5 mg/dL
Change from baseline to Day 57 in LDL-C by Friedewald formula, median [1, 7]: -41.0 mg/dL
Percent change from baseline to Day 57 in LDL-C by Friedewald formula, mean [1, 7]: −31.88%
Percent change from baseline to Day 57 in LDL-C by Friedewald formula, median [1, 7]: −34.40%
Percent change from baseline in ApoB compared to placebo (in words) (apolipoprotein B (ApoB); Day 57, compared to placebo): significant reductions
ApoB at Day 57, mean (apolipoprotein B (ApoB); [6]): 78.3 mg/dL
ApoB at Day 57, median (apolipoprotein B (ApoB); [6]): 75.0 mg/dL
Change from baseline to Day 57 in ApoB, mean (apolipoprotein B (ApoB); [7]): -22.6 mg/dL
Change from baseline to Day 57 in ApoB, median (apolipoprotein B (ApoB); [7]): -24.0 mg/dL
Percent change from baseline to Day 57 in ApoB, mean (apolipoprotein B (ApoB); [7]): −22.15%
Percent change from baseline to Day 57 in ApoB, median (apolipoprotein B (ApoB); [7]): −23.50%
Percent change from baseline in non-HDL-C compared to placebo (in words) [2]: significant reductions
Percent change from baseline in HDL-C compared to placebo (in words) [3]: significant increases
Percent change from baseline in ApoE compared to placebo (in words) (apolipoprotein E (ApoE)): significant increases
Safety and tolerability (in words) ([4]; 8 weeks of treatment, oral once daily): generally safe and well tolerated
Participants who experienced at least 1 TEAE, number ([4]; Safety Population): 4 participants
Participants who experienced at least 1 TEAE, percentage ([4]; Safety Population): 14.3%
Participants who experienced at least 1 study drug-related TEAE, number ([4]; Safety Population): 1 participants
Participants who experienced at least 1 study drug-related TEAE, percentage ([4]; Safety Population): 3.6%
Participants with a TEAE with a maximum severity of moderate, number ([4]; Safety Population): 1 participants
Participants with a TEAE with a maximum severity of moderate, percentage ([4]; Safety Population): 3.6%
Elimination of obicetrapib (in words) [5]: almost complete elimination
Effect on LDL cholesterol concentrations (in words) (LDL-C; Phase II trial TULIP, 10 mg and 5 mg obicetrapib as monotherapy): able to reduce LDL cholesterol concentrations
Effect on LDL-C levels (in words) (LDL-C; [8]): decreased
Effect on HDL cholesterol concentration (in words) (HDL-C; Phase II trial TULIP, mono-therapy and in combination with statins): increased considerably
Effect on HDL-C levels (in words) (HDL-C; [8]): increased
CETP activity and concentrations (in words) (CETP): effectively reduced
